Activity and IC50 data for five molecules are collected here from ChEMBL document CHEMBL1125537, “3'-Azido-3',5'-dideoxythymidine-5'-methylphosphonic acid diphosphate: synthesis and HIV-1 reverse transcriptase inhibition” (J Med Chem, 1992).

Activity calls are given as the source filed them. The calls are words filed in the database; no cut-off is given here.

For test [1], the system named is MT4. In words: antiviral activity against HIV-1 in MT-4 cells using cell-protection assay at a concentration of 200 uM. It is filed as functional, cell-based. The following applies: Homo sapiens.
The subject of test [2] is MT4. In words: Average antiviral activity against HIV-1 in MT-4 cells using cell-protection assay. It is filed as functional, cell-based. The following applies: Homo sapiens.

With `Cc1cn(C2CC(N=[N+]=[N-])C(CCP(=O)(O)Oc3ccccc3)O2)c(=O)[nH]c1=O` (stereo not given), the result in test [1] was inactive. For the molecule `Cc1cn(C2CC(N=[N+]=[N-])C(/C=C/P(=O)(O)Oc3ccccc3)O2)c(=O)[nH]c1=O` (stereo not given), the result in test [1] was inactive. The term IC50 denotes the concentration that inhibits the measured activity by half. A higher IC50 goes with lower potency. Regarding `Cc1cn([C@H]2C[C@H](N=[N+]=[N-])[C@@H](CO)O2)c(=O)[nH]c1=O` [ZIDOVUDINE], the half-maximal inhibitory concentration (IC50) in test [2] was determined as 60 nM. In the case of `Cc1cn(C2CC(N=[N+]=[N-])C(CCP(=O)(O)O)O2)c(=O)[nH]c1=O` (stereo not given), the result in test [1] was inactive. In the case of `Cc1cn(C2CC(N=[N+]=[N-])C(/C=C/P(=O)(O)O)O2)c(=O)[nH]c1=O` (stereo not given), the result in test [1] was inactive.
